Data as given in PubChem BioAssay (NCI).
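Interpolation was linear, between the two tested concentrations surrounding the appropriate level; five concentrations were tested over 48 hours in 96-well plates. Here, GI50 denotes the concentration required for 50% inhibition of growth. TGI marks complete inhibition of growth.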

What was measured:
Test in all cases: inhibition of tumour cell growth, NCI panel, 48 h
[1] = tested on: A498 renal
[2] = tested on: SK-MEL-5 melanoma
[3] = tested on: M14 melanoma
[4] = tested on: SF-268 CNS
[5] = tested on: NCI-H23 lung
[6] = tested on: RXF 393 renal
[7] = tested on: BT-549 breast
[8] = tested on: LOX IMVI melanoma

| Compound | GI50 [1] [µM] | TGI [1] [µM] | GI50 [2] [µM] | TGI [2] [µM] | GI50 [3] [µM] | TGI [3] [µM] | GI50 [4] [µM] | TGI [4] [µM] | GI50 [5] [µM] | TGI [5] [µM] | GI50 [6] [µM] | TGI [6] [µM] | GI50 [7] [µM] | TGI [7] [µM] | GI50 [8] [µM] | TGI [8] [µM] |
| --- | --- | --- | --- | --- | --- | --- | --- | --- | --- | --- | --- | --- | --- | --- | --- | --- |
| CN[C@@H](C)C(=O)N[C@H]1CN(S(=O)(=O)c2cccc(S(=O)(=O)N3CC[C@H]4CC[C@@H](C(=O)NC(c5ccccc5)c5ccccc5)N4C(=O)[C@@H](NC(=O)[C@H](C)NC)C3)c2)CC[C@H]2CC[C@@H](C(=O)NC(c3ccccc3)c3ccccc3)N2C1=O | 32.6 | > 67.7 | 9.56 | 34.3 | 34.3 | > 100 | 20.9 | 47.8 | 1.09 | 17.9 | 0.165 | 2.93 | < 0.01 | < 0.0197 | 14.8 | 36.5 |
| COc1ccc(OC)c(NCC(=O)n2nc(/C=C\c3ccc(O)c(OC)c3)cc2/C=C\c2ccc(O)c(OC)c2)c1 | 1.6 | 5.7 | 1.66 | 4.91 | 2.02 | 6.18 | 2.37 | > 100 | 2.62 | 31.7 | 1.51 | 3.19 | 1.44 | 5.7 |  |  |
| CC(=O)ON1CCCC(P(=O)(OCOC(=O)C(C)(C)C)OCOC(=O)C(C)(C)C)C1=O (configuration not stated) | 0.314 | 2.01 | 0.773 | 3.04 | 1.04 | 6.96 | 0.746 | 6.25 | 0.91 | 4.25 | 0.308 | 1.19 | 0.559 | 5.1 | 0.827 | 15.3 |
| CC(Br)C(=O)NC(CO)C(=O)O (configuration not stated) |  | > 100 |  | > 100 |  | > 100 |  | > 100 |  | > 100 |  | > 100 |  | > 100 |  | > 100 |
| Cc1ccc(O)cc1Nc1ccnc2ccc(S(C)(=O)=O)cc12 | 1.75 | 6.18 | 10.4 | > 25 | 0.939 | > 21.8 | 2.67 | > 25 | 5.97 | > 25 | 0.381 | 1.99 | 5.06 | 17.8 | 0.516 | 3.89 |
| COc1cc2c(cc1Nc1nc(N3CCc4ccccc43)c3cc[nH]c3n1)N(C(=O)CN(C)C)CC2 | 8.43 | 14.1 | 4.26 | 11 | 0.6 | 1.51 | 5.03 | 10.3 | 4.98 | 14.6 | 3.55 | 8.89 | 8.38 | 15.7 | 1.59 | 10.2 |
| Cc1c(C(=N)C(C#N)C#N)c(=N)oc2c1ccc1ccccc12 | 9.83 | 96 | 13.3 | 29.8 | 23.9 | > 100 | 46.5 | > 100 | 16.8 | > 100 | 2.76 | 15.4 | 32.2 | > 100 | 11.9 | 38.2 |
| Cn1c([N+](=O)[O-])cnc1C=C1C(=O)c2ccccc2C1=O | 7.05 | 22.6 | 8.67 | 21.9 | 3.83 | 16.6 | 3.95 | 16.7 | 4.9 | 20.5 | 2.6 | 10.3 | 3.86 | 12.8 | 2.84 | 11.1 |
| CCN=c1sc2c(n1NC(=O)c1cc3ccc1CCc1ccc(cc1)CC3)C(=O)c1ccccc1C2=O | 4.81 | 20.9 | 0.563 | 1.03 | 0.577 | 1.11 | 0.604 | 1.62 | 0.589 | 1.64 | 0.504 | 0.976 | 0.511 | 0.974 | 0.478 | 1.24 |
| Cc1cccc(NC(=O)c2sc3nc4c(cc3c2N)C(=O)CCC4)c1 | 0.0656 | 0.801 | 0.115 | > 57.4 | 0.179 | > 34.6 | 3.07 | > 100 | 0.67 | > 60.4 | 0.252 |  | 2.68 | > 96.3 | 1 | > 70 |
| O=c1c2ccccc2sc2c(CO)ccc(NCCN3CCCCC3)c12 |  | 9.61 |  | 3.19 |  | 3.82 |  | 13.1 |  | 10.3 |  | 7.72 |  | 23 |  | 11 |
| COc1ccc2sc3c(NCCCN)nc4ccccc4c3c(=O)c2c1 | 1.52 | 5.59 | 1.82 | 3.37 | 1.74 | 3.18 | 1.66 | 3.44 | 1.76 | 3.43 | 1.5 | 2.9 | 1.69 | 3.55 |  |  |
| CCN(C)c1nc(N(C)CC)c2nc(N(C)CC)nc(N(C)CC)c2n1 |  | > 100 |  | > 100 |  | > 100 |  | > 100 |  | > 100 |  | > 100 |  | > 100 |  | > 100 |
| OC1(c2ccc(Cl)c(C(F)(F)F)c2)CCN(CCCC(c2ccc(F)cc2)c2ccc(F)cc2)CC1 | 0.515 | 1.12 | 0.797 | 1.47 | 0.828 | 1.52 | 0.894 | 1.88 | 0.83 | 1.62 | 0.638 | 1.27 | 1.09 | 2.1 | 0.821 | 1.52 |
| CCN(CC)Cc1cc(Nc2nc(NC3CCC(N(C)C)CC3)c3ccccc3n2)ccc1OC (configuration not stated) | 12.5 | 25.2 | 1.54 | 2.87 | 1.91 | 3.57 | 5.35 | 20.4 | 6.9 | 21.9 | 0.578 | 8.44 |  |  |  |  |
| CNC(=O)c1ncccc1Nc1nc(Nc2cc3c(cc2OC)CCCN3C(=O)CN(C)C)nc2[nH]ccc12 | 1.18 | 5.46 | 0.618 | 3.37 | 1.87 | 5.78 | 1.46 | 5.4 | 0.476 | 3.07 | 0.974 | 3.8 | 2.7 | 6.04 | 1.26 | 4.77 |

| Compound | GI50 [1] [µM] | TGI [1] [µM] | GI50 [2] [µM] | TGI [2] [µM] | GI50 [3] [µM] | TGI [3] [µM] | GI50 [4] [µM] | TGI [4] [µM] | GI50 [5] [µM] | TGI [5] [µM] | GI50 [6] [µM] | TGI [6] [µM] | GI50 [7] [µM] | TGI [7] [µM] | GI50 [8] [µM] | TGI [8] [µM] |
| --- | --- | --- | --- | --- | --- | --- | --- | --- | --- | --- | --- | --- | --- | --- | --- | --- |
| CSC1=Nc2c(c(C)c(C)n2COC(CO)CO)C2=NC(=O)CN12 | > 100 | > 100 | > 100 | > 100 |  |  | > 100 | > 100 | > 100 | > 100 | > 100 | > 100 | > 100 | > 100 | > 100 | > 100 |
| CC1(C)OC[C@@H]([C@@]2(CO[Si](c3ccccc3)(c3ccccc3)C(C)(C)C)CC=CC(=O)O2)O1 | 17.1 | 34.2 | 4.65 | 19.4 | 8.52 | 60.5 | 10.5 | 45.8 | 10.2 | 40.2 | 9.82 | > 100 | 4.46 | 19 | 3.93 | 21 |
| COc1ccc(C(=O)c2cc(OC)c(OC)c(OC)c2OC)cc1O | 6.31 | > 100 | 2.93 | > 100 | 3.1 | > 100 | 4.19 | > 100 | 3.71 | > 100 |  |  | 5.52 | > 100 | 4.95 | > 100 |
| CCCCCOc1ccc(/C=N/Nc2cc(C)nc3ccc(Cl)cc23)cc1 | 1.19 | 2.47 | 1.63 | 3.01 | 1.76 | 3.23 | 2.23 | 4.46 | 1.78 | 3.47 | 1.63 | 3.08 | 1.74 | 3.28 | 1.69 | 3.15 |
| CC(=O)O[C@H]1C(=O)[C@@]2(C)C([C@H](OC(=O)c3ccccc3)[C@]3(O)C[C@H](OC(=O)[C@H](O)[C@@H](NC(=O)c4ccccc4)c4ccccc4)C(C)=C1C3(C)C)[C@]1(OC(C)=O)CO[C@@H]1C[C@@H]2O (some centres not stated) | 0.0161 | > 50 | 0.00785 | > 50 |  |  | 0.021 | > 50 | 0.0125 | > 50 | 0.00516 | 0.0382 | 0.0212 | > 50 | 0.00513 | > 50 |
| C[C@]12CC[C@H]3[C@@H](CCC4=CC(=O)CC[C@@]43C)[C@@H]1CC[C@@H]2c1csc(N)n1 | 2.51 | 12.4 | 1.69 | 5.41 | 5.16 | 21.4 | 5.07 | 24.1 | 2.85 | 19.9 | 10.8 | 24.2 | 6.12 | 21.3 | 3.38 | 15.9 |
| COc1cc(CNc2nc3cc(N)cc(N)c3nc2-c2ccccc2)cc(OC)c1 | 90.8 | > 100 | 13 | 41.7 | 10.1 | 49.3 | 5.32 | > 100 | 16.2 | > 100 | 6.09 | 58.5 | 9.7 | > 100 | 4.51 | 81.7 |
| CCn1cc(C(=O)O)c(=O)c2cc(F)c(N3CCN(S(=O)(=O)c4cccc5ccccc45)CC3)cc21 | 2.74 | > 100 | 2.24 | 5.17 | 4.37 | > 100 | 4.39 | > 100 | 3.13 | 12.1 | 3.19 | 11.8 | 3.69 | > 100 |  |  |
| CCn1c2c(c3ccccc3c1=O)C(=O)c1ccccc1-2 |  | > 100 |  | > 100 |  | > 100 |  | > 100 |  | > 100 |  |  |  | > 100 |  | > 100 |
| O=[N+]([O-])c1ccc(Cl)c2c([N+](=O)[O-])cccc12 |  |  |  | > 10 |  |  |  | > 10 |  | > 10 |  | > 10 |  |  |  | > 10 |
| Nc1ncc(Cc2ccc3c(c2)OCO3)c(N)n1 |  | > 100 |  | > 100 |  | > 100 |  | > 100 |  | > 100 |  | > 100 |  |  |  | > 100 |
| N#Cc1nc2c(S(=O)(=O)c3ccc(Cl)cc3)c(N)n(Nc3cccc(Cl)c3)c2nc1C#N |  |  | 0.115 | 0.657 | 0.0671 | 0.304 |  | > 100 | 0.0324 |  |  |  | 0.131 |  | 0.0301 |  |
| O=C(NCCNCCO)c1ccc2c(c1)oc1cc3ccccc3c(=O)n12 |  |  | 12.6 | 32.1 | > 50 | > 50 | 19.6 | > 50 | 22.5 | > 50 | 14.2 | > 50 | 18.8 | > 50 | 17.4 | 40.6 |
| COC(=O)OC1C(O[C@H]2C[C@H]3[C@@H]4CC=C5C[C@@H](O)CC[C@]5(C)[C@H]4CC[C@]3(C)[C@H]2[C@H](C)C(=O)CCC(C)C)OCC(O)C1OC1OCC(O)C(O)C1OC(=O)c1ccc(OC)cc1 (some centres not stated) | < 0.00275 | 0.0108 | 0.014 | 0.279 |  |  | 0.0137 | 2.24 | 0.138 | 5.94 | < 0.00275 | 0.00948 | < 0.00275 | 3.45 |  |  |
| CCN(CC)CCCNc1ccc(C)c2sc3ccccc3c(=O)c12 |  |  | 0.187 | 0.343 | 0.193 | 0.401 | 1.31 | 3.74 | 1.75 | 5.04 | 0.446 | 1.76 | 1.83 | 11.1 | 0.423 | 1.58 |
| CCCCCCCCCCCC[N+]1(CCCCCCCCCCCC)CCCC(C)C1 (configuration not stated) | 1.26 | 2.52 |  |  |  |  | 0.293 | 1.25 | 0.113 | 0.399 | 0.198 | 0.894 | 0.817 | 3.25 | 0.348 | 1.39 |
